Test results taken from US5639775A, “4-[4'-piperodinyl or 3'-pirrolidinyl] substituted imidazoles as H3 -receptor antagonists and therapeutic uses thereof” (The University of Toledo, priority 1994, dated 1997).
Where two headings read alike, the source gives them in different places.

Experiments:
histamine H3 receptor = molecular target: T1, histamine H3 receptor (Rattus norvegicus, UniProt Q9QYN8); assay: inhibition of binding of [3H]-N-alpha-methylhistamine to rat brain membranes; details: for IC50: rat brain membranes, 3HNα-methylhistamine as radioligand
T1 construct: from tissue
Experimental: A series of compounds were prepared and tested for their histamine H3 receptor antagonist activity. The antagonist activity of the compounds was detected by observing inhibition of (^3 H)-N-(alpha)methylhistamine activity on rat brain membranes.
The various compounds were tested for the ability to bind to the histamine H3 receptor. A binding assay in a rat brain membrane preparation, based on inhibition of binding of [^3 H]-N-alpha-methylhistamine using excess unlabeled alpha-methylhistamine to account for nonspecifc binding, was developed.

Glycine [1] = details: read-out: Reference Ki; reference compound; inhibitory; cited from earlier work
male albino CF-1 mice = assay: behavioral effects: sleep induced by (R)α-methylhistamine in mice; assay type: in vivo
Experimental: The overall strategy to show central nervous system antagonist activity was to challenge effects of the agonist (R)α-methylhistamine. Therefore, the first objective was to establish a dose response curve for behavioral effects of (R)α-methylhistamine. […] Saline or (R)α-methylhistamine in saline was injected i.p. in a volume≤0.4 ml. […] Animals were scored for the presence (1) or absence (0) of the behavior and the results were reported as the accumulated score for a 30 minute period (maximum score=9).
To assess the effects of antagonists, they were administered with the (R)α-methylhistamine in saline.

[2] = system: H3 receptors in the cortex; assay: blood-brain barrier penetration by ex vivo binding of [3H]-Nα-methylhistamine to cortical homogenate of injected rats; assay type: in vivo, rat
Experimental: Blood-brain barrier penetration in rats was assessed by an ex vivo binding procedure. Young adult male Long-Evans rats were injected i.p. with saline or H3 antagonists in saline. At various times after injection animals were sacrificed, the cortex was removed, homogenized in 50 mM Na/K-phosphate buffer, pH 7.4, and the binding of 1 nM [^3 H]-N^[…] -methylhistamine was measured using 400 μg protein of the homogenate. Nonspecific binding was accounted for by the inclusion of excess thioperamide in some samples. Under these conditions, the binding was approximately 90% specific.

rats = details: cited from earlier work
dogs = details: high dose, repeated dose; cited from earlier work
Calcium = assay: NOVASCREEN receptor selectivity assay (channel proteins, Nifedipine reference); assay type: binding; details: 10^-5 M
Description: (§1) Bolded values represent inhibition of fifty percent or greater.

[3] = toxicity observed in all testing to date; assay type: in vivo; details: even at high doses
Glycine [4] = assay: NOVASCREEN receptor selectivity assay (inhibitory amino acids); assay type: binding; details: 10^-5 M
Description: as §1

[5] = assay type: binding; details: 10^-5 M; w-Conotoxin reference
Glycine [6] = assay: NOVASCREEN receptor selectivity assay (excitatory amino acids); assay type: binding; details: 10^-5 M
Description: as §1

Kainate = details: reference compound; cited from earlier work
[7] = 2, 5, and 10 mg/kg i.p., 15 min after injection

T1 sequence (Q9QYN8 whole entry): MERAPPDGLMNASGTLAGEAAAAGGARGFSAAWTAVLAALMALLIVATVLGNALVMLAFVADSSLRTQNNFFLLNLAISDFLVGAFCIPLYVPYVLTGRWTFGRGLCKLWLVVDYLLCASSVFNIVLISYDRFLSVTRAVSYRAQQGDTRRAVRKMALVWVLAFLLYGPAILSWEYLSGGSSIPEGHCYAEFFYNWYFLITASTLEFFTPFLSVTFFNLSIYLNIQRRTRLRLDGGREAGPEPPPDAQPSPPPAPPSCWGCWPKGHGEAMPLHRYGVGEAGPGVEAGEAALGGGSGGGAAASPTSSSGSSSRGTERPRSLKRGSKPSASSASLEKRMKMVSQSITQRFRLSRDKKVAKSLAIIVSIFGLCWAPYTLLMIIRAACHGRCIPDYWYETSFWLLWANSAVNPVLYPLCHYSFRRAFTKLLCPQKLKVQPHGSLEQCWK

N#CN=C(Oc1ccccc1)N1CCC(c2c[nH]cn2)CC1 [Compound 47]
binding to the H3-receptor (in words) (histamine H3 receptor): ineffective

O=C1C[C@@H]2OCC=C3CN4CC[C@]56c7ccccc7N1[C@H]5[C@H]2[C@H]3C[C@H]46 [Strychinine Nitrate]
Ki (Glycine [1]): 33.5 nM

N#CN=C(Nc1ccc(-c2c[nH]cn2)cc1)NC1CCCCC1 [Compound 50]
binding to the H3-receptor (in words) (histamine H3 receptor): ineffective
IC50 (histamine H3 receptor; Table I second part): inactive

Cn1cnc(C2CCN(C(=O)c3ccccc3)CC2)c1 [Compound 42]
IC50 (histamine H3 receptor; Table I first part): inactive

N#CN=C(NC1CCCCC1)N1CCC(c2c[nH]cn2)CC1 [Compound 48]
binding to the H3-receptor (in words) (histamine H3 receptor): ineffective
IC50 (histamine H3 receptor; Table I first part): inactive

C[C@@H](N)Cc1c[nH]cn1 [(R)α-methylhistamine, reference compound]
effect on sleeping (male albino CF-1 mice; i.p., one hour after injection, also evident at 30 minutes): dose-dependent (range of 15 to 35 mg/kg) increase in sleeping

CC(C)(C)C(=O)N1CCC(c2c[nH]cn2)CC1 [Compound 14]
IC50 (histamine H3 receptor; Table I second part): inactive

O=C(CCCCC1CCCCC1)N1CCC(c2c[nH]cn2)CC1 [compound 2016]
effect on soporific effect of R(-)-alphamethylhistamine (male albino CF-1 mice; mice, both drugs administered peripherally): reverses the soporific effect

S=C(NC1CCCCC1)N1CCC(c2cnc[nH]2)CC1 [Thioperamide, reference compound]
binding of [3H]-Nα-methylhistamine to H3 receptors in the cortex [2, 7]: decreased the binding
penetration of the blood-brain barrier [2, 7]: able to penetrate the blood-brain barrier
dose needed in vivo to inhibit histamine release from the brain (rats): relatively high doses are required
effect on sleep induced by R(-)-α-methylhistamine (male albino CF-1 mice; 30 mg/kg (R)α-methylhistamine): inhibit the soporific effect
behavior with antagonist alone (male albino CF-1 mice; in the absence of the α-methylhistamine H3 receptor agonist): very active, exhibiting normal behaviors

CC(C)(C)OC(=O)N1CCC(c2cn(C(=O)OC(C)(C)C)cn2)CC1 [Compound 45]
IC50 (histamine H3 receptor; Table I first part): inactive

C/N=C(\S)NCCSCc1[nH]cnc1C [metiamide]
proportion of dogs that died acutely with pulmonary edema and pleural effusion (dogs): < 10%

O=C(C1CCCCC1)N1CCC(c2c[nH]cn2)CC1 [Compound 41]
IC50 (histamine H3 receptor; Table I first part): inactive

O=C(CC12CC3CC(CC(C3)C1)C2)N1CCC(c2cnc[nH]2)CC1 [Compound 8]
IC50 (histamine H3 receptor; Table I second part): inactive

CC(C)(C)C(=O)N1CCC(c2cn(C(=O)C(C)(C)C)cn2)CC1 [Compound 44]
IC50 (histamine H3 receptor; Table I first part): inactive

O=C(c1ccccc1)N1CCC(c2cn(Cc3ccccc3)cn2)CC1 [Compound 46]
IC50 (histamine H3 receptor; Table I first part): inactive

O=C(CCCCC1CCCCC1)N1CCC(c2c[nH]cn2)CC1 [Compound 1, 4-(1-Cyclohexylvaleroyl-4-Piperidyl) 1H-Imidazole]
Initial Percent Inhibition (Average; N = 2) (Calcium): 8.1%
toxicity observed [3]: no toxicity
penetration of the blood-brain barrier ([2]; 50 and 70 mg/kg i.p., one hour after injection): penetrates the blood-brain barrier
penetration of the blood-brain barrier compared with thioperamide ([2]; taking into account the difference in affinity): at least as well as thioperamide
Initial Percent Inhibition (Average; N = 2) (Glycine [4]): 17.4%
Initial Percent Inhibition (Average; N = 2) [5]: 1.9%
Initial Percent Inhibition (Average; N = 2) (Glycine [6]): 1.8%
effect on sleep induced by R(-)-α-methylhistamine (male albino CF-1 mice; 25 mg/kg (R)α-methylhistamine): inhibited the soporific effect
effectiveness as an H3-receptor antagonist in vivo (male albino CF-1 mice; in vivo assays): effective as an H3 -receptor antagonist

O=C(Cc1ccccc1)N1CCC(c2c[nH]cn2)CC1 [Compound 4]
IC50 (histamine H3 receptor; Table I first part, read-out: IC50): 1400 ± 437 nM

C=C(C)[C@H]1CN[C@H](C(=O)O)[C@H]1CC(=O)O [Kainic Acid]
Ki (Kainate): 24.9 nM

O=C(c1ccccc1)N1CCC(c2cn(C(=O)c3ccccc3)cn2)CC1 [Compound 43]
IC50 (histamine H3 receptor; Table I first part): inactive

O=C(C(C1CCCCC1)C1CCCCC1)N1CCC(c2cnc[nH]2)CC1 [Compound 9]
IC50 (histamine H3 receptor; Table I second part): inactive
